Assay results as given in ChEMBL document CHEMBL4507278 (2021).

Experiments:
[1] = tested on: Tyrosine-protein kinase ABL1 (Homo sapiens), P00519 [H396P]; details: Compound concentration 1000.0 nM
[2] = target: Tyrosine-protein kinase ABL2 (Homo sapiens) (UniProt P42684); details: Compound concentration 1000.0 nM
[3] = target: Activin receptor type-2B (Homo sapiens) (UniProt Q13705); details: Compound concentration 1000.0 nM
[4] = target: Mitogen-activated protein kinase kinase kinase 6 (Homo sapiens) (UniProt O95382); details: Compound concentration 1000.0 nM
[5] = target: Bone morphogenetic protein receptor type-1B (Homo sapiens) (UniProt O00238); details: Compound concentration 1000.0 nM
[6] = target: Cyclin-dependent kinase 3 (Homo sapiens) (UniProt Q00526); details: Compound concentration 1000.0 nM
[7] = target: Cyclin-dependent kinase 9 (Homo sapiens) (UniProt P50750); details: Compound concentration 1000.0 nM
[8] = target: Cyclin-dependent kinase-like 2 (Homo sapiens) (UniProt Q92772); details: Compound concentration 1000.0 nM
[9] = target: Casein kinase I isoform alpha-like (Homo sapiens) (UniProt Q8N752); details: Compound concentration 1000.0 nM
[10] = target: Casein kinase I isoform gamma-1 (Homo sapiens) (UniProt Q9HCP0); details: Compound concentration 1000.0 nM
[11] = target: Casein kinase I isoform gamma-3 (Homo sapiens) (UniProt Q9Y6M4); details: Compound concentration 1000.0 nM
[12] = target: Mitogen-activated protein kinase kinase kinase 12 (Homo sapiens) (UniProt Q12852); details: Compound concentration 1000.0 nM
[13] = target: Serine/threonine-protein kinase 17B (Homo sapiens) (UniProt O94768); details: Compound concentration 1000.0 nM
[14] = tested on: Epidermal growth factor receptor (Homo sapiens), P00533 [G719C]; details: Compound concentration 1000.0 nM
[15] = tested on: Epidermal growth factor receptor (Homo sapiens), P00533 [L858R,T790M]; details: Compound concentration 1000.0 nM
[16] = target: Fibroblast growth factor receptor 3 (Homo sapiens) (UniProt P22607); details: Compound concentration 1000.0 nM
[17] = tested on: Receptor-type tyrosine-protein kinase FLT3 (Homo sapiens), P36888 [R834Q]; details: Compound concentration 1000.0 nM
[18] = target: Vascular endothelial growth factor receptor 3 (Homo sapiens) (UniProt P35916); details: Compound concentration 1000.0 nM
[19] = target: G protein-coupled receptor kinase 4 (Homo sapiens) (UniProt P32298); details: Compound concentration 1000.0 nM
[20] = target: Serine/threonine-protein kinase haspin (Homo sapiens) (UniProt Q8TF76); details: Compound concentration 1000.0 nM
[21] = target: Mast/stem cell growth factor receptor Kit (Homo sapiens) (UniProt P10721); details: Compound concentration 1000.0 nM
[22] = target: Serine/threonine-protein kinase LATS1 (Homo sapiens) (UniProt O95835); details: Compound concentration 1000.0 nM
[23] = target: Serine/threonine-protein kinase STK11 (Homo sapiens) (UniProt Q15831); details: Compound concentration 1000.0 nM
[24] = target: Serine/threonine-protein kinase MARK1 (Homo sapiens) (UniProt Q9P0L2); details: Compound concentration 1000.0 nM
[25] = target: Microtubule-associated serine/threonine-protein kinase 1 (Homo sapiens) (UniProt Q9Y2H9); details: Compound concentration 1000.0 nM
[26] = target: Maternal embryonic leucine zipper kinase (Homo sapiens) (UniProt Q14680); details: Compound concentration 1000.0 nM
[27] = target: Hepatocyte growth factor receptor (Homo sapiens) (UniProt P08581); details: Compound concentration 1000.0 nM
[28] = target: Myosin light chain kinase, smooth muscle (Homo sapiens) (UniProt Q15746); details: Compound concentration 1000.0 nM
[29] = target: Serine/threonine-protein kinase Nek9 (Homo sapiens) (UniProt Q8TD19); details: Compound concentration 1000.0 nM
[30] = target: Serine/threonine-protein kinase NLK (Homo sapiens) (UniProt Q9UBE8); details: Compound concentration 1000.0 nM
[31] = target: Cyclin-dependent kinase 18 (Homo sapiens) (UniProt Q07002); details: Compound concentration 1000.0 nM
[32] = target: cGMP-dependent protein kinase 1 (Homo sapiens) (UniProt Q13976); details: Compound concentration 1000.0 nM
[33] = target: Serine/threonine-protein kinase PRP4 homolog (Homo sapiens) (UniProt Q13523); details: Compound concentration 1000.0 nM
[34] = target: Ribosomal protein S6 kinase alpha-4 (Homo sapiens) (UniProt O75676); details: Compound concentration 1000.0 nM
[35] = target: Ribosomal protein S6 kinase beta-1 (Homo sapiens) (UniProt P23443); details: Compound concentration 1000.0 nM
[36] = target: SRSF protein kinase 2 (Homo sapiens) (UniProt P78362); details: Compound concentration 1000.0 nM
[37] = target: Non-receptor tyrosine-protein kinase TYK2 (Homo sapiens) (UniProt P29597); details: Compound concentration 1000.0 nM
[38] = target: Mitogen-activated protein kinase kinase kinase 19 (Homo sapiens) (UniProt Q56UN5); details: Compound concentration 1000.0 nM
[39] = target: 5-hydroxytryptamine receptor 2B (Homo sapiens) (UniProt P41595); details: Compound concentration 10.0 uM
[40] = target: Sodium-dependent dopamine transporter (Homo sapiens) (UniProt Q01959); details: Compound concentration 10.0 uM
[41] = target: Mu-type opioid receptor (Homo sapiens) (UniProt P35372); details: Compound concentration 10.0 uM
[42] = target: Histamine H3 receptor (Homo sapiens) (UniProt Q9Y5N1); details: Compound concentration 10.0 uM
[43] = target: Beta-3 adrenergic receptor (Homo sapiens) (UniProt P13945); details: Compound concentration 10.0 uM
[44] = target: GABA-A receptor; anion channel (Rattus norvegicus) (UniProt O09028+P15431+P18506+P18508+P19969+P20236+P23574+P23576+P28471+P28473+P30191+P62813+P63079+P63138+Q91ZM7+Q9ES14); details: Compound concentration 10.0 uM

Chain of Non-receptor tyrosine-protein kinase TYK2 (Homo sapiens) (P29597 whole entry): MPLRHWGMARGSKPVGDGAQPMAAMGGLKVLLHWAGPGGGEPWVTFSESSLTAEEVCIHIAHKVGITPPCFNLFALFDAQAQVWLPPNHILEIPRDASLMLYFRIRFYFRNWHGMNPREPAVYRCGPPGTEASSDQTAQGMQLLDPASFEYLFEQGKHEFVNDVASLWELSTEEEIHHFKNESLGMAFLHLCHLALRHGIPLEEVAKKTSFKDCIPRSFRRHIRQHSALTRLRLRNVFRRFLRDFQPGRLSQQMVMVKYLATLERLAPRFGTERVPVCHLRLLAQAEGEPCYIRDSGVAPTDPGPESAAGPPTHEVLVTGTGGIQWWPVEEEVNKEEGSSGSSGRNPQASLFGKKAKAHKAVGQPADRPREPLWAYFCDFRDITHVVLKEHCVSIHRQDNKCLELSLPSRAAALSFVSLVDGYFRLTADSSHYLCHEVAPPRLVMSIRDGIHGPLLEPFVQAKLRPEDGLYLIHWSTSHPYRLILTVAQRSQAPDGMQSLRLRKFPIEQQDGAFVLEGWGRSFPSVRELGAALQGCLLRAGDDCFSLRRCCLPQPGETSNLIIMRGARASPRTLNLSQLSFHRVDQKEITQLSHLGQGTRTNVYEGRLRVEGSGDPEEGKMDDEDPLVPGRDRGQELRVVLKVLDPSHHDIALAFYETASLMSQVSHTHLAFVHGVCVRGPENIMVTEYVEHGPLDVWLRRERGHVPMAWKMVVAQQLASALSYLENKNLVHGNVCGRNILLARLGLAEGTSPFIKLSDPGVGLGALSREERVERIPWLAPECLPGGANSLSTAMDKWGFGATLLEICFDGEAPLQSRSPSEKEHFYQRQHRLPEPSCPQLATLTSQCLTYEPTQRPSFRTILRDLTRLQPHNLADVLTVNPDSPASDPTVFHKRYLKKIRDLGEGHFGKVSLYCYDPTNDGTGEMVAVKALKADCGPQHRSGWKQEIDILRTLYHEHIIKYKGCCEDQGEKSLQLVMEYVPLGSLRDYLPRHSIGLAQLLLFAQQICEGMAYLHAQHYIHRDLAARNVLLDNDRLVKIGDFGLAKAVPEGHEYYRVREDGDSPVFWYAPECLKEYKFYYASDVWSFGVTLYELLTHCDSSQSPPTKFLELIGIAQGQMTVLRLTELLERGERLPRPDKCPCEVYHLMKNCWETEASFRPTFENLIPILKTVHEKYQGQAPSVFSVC
Chain of Ribosomal protein S6 kinase alpha-4 (Homo sapiens) (O75676 whole entry, looked up): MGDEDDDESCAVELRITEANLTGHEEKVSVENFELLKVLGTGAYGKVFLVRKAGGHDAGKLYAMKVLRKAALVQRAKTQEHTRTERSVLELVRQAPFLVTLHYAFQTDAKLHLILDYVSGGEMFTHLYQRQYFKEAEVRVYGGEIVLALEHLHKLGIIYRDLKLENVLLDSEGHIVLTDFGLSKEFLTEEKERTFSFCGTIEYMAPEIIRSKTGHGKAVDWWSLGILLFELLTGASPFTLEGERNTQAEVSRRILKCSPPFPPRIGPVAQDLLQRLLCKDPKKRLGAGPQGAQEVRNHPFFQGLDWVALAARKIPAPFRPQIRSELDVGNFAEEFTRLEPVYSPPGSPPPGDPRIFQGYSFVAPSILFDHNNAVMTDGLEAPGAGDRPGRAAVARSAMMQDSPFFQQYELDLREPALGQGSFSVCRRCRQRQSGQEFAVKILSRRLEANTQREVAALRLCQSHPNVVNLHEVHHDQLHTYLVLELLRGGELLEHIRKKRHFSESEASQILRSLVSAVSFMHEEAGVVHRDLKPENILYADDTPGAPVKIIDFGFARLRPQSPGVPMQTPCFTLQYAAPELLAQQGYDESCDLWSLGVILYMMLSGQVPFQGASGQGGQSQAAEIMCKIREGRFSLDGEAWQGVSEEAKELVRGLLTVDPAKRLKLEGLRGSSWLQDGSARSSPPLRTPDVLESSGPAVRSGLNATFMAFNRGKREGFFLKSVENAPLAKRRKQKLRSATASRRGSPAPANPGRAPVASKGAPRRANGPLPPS
Chain of Microtubule-associated serine/threonine-protein kinase 1 (Homo sapiens) (Q9Y2H9 whole entry, looked up): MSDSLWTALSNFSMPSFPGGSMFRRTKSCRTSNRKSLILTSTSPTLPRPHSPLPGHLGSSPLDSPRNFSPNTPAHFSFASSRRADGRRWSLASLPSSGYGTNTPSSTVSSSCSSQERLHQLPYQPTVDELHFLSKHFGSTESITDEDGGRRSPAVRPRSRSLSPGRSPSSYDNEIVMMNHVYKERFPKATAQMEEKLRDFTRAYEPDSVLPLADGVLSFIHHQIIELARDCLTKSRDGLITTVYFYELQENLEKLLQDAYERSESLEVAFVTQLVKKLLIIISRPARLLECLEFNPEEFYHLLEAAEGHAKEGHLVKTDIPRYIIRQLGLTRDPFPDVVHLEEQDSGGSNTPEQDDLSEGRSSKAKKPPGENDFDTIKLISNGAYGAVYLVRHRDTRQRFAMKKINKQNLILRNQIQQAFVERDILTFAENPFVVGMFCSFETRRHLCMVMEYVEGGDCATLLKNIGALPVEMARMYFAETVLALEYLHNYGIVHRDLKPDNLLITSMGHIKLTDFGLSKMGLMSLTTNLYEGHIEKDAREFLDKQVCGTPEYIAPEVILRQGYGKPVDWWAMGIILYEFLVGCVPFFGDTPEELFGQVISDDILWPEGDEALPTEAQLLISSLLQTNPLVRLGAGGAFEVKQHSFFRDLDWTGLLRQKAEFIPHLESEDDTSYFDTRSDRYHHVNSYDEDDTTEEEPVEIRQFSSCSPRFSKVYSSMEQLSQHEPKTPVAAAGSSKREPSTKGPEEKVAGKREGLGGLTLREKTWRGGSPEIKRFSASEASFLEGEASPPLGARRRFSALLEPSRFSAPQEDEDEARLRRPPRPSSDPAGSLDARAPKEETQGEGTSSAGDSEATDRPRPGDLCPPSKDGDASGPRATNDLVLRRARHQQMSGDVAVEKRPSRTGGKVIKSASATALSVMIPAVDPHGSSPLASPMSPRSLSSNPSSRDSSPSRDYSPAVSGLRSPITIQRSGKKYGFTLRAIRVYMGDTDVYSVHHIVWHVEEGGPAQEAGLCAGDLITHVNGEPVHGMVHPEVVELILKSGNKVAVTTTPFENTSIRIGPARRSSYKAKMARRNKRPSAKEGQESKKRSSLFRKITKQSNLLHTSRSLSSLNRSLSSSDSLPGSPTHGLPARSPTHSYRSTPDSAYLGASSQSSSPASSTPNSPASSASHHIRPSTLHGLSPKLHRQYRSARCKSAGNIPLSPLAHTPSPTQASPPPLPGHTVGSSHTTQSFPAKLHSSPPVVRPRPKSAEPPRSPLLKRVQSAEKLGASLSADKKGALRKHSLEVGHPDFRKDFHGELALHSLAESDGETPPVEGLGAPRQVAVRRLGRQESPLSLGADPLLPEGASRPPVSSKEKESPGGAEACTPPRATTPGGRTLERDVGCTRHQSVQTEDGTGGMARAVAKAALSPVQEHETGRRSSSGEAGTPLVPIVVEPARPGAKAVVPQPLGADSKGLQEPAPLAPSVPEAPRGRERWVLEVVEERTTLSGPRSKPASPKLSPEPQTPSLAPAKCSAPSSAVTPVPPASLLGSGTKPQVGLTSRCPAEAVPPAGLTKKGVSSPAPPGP
Chain of Casein kinase I isoform gamma-1 (Homo sapiens) (Q9HCP0 whole entry, looked up, canonical isoform): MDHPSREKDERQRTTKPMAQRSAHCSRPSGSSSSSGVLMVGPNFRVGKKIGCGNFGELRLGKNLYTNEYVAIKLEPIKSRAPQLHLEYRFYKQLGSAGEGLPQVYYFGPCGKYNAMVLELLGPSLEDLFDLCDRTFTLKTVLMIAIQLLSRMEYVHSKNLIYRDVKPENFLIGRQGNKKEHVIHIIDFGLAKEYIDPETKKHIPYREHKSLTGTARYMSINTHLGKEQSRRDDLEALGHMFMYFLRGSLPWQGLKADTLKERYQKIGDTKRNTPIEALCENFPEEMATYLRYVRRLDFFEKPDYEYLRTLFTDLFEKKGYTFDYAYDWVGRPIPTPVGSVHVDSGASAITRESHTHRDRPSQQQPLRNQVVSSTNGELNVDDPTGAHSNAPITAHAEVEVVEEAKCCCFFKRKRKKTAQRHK
Chain of Sodium-dependent dopamine transporter (Homo sapiens) (Q01959 whole entry): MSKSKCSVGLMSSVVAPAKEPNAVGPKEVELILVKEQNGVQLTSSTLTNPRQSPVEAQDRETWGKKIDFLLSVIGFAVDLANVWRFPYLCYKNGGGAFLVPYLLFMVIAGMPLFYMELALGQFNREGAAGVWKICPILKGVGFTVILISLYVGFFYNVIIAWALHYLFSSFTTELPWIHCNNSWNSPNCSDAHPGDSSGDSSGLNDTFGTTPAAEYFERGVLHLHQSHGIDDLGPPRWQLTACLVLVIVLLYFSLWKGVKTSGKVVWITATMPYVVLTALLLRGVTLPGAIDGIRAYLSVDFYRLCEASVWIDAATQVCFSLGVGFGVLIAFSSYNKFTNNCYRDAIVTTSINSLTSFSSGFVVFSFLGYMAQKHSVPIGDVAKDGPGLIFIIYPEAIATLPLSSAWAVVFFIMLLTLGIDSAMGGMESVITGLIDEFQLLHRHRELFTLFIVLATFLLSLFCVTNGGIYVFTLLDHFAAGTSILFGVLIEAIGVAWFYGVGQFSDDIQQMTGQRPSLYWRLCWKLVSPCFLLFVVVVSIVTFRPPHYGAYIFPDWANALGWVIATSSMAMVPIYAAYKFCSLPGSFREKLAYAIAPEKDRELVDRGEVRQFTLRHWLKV
Chain of Serine/threonine-protein kinase NLK (Homo sapiens) (Q9UBE8 whole entry): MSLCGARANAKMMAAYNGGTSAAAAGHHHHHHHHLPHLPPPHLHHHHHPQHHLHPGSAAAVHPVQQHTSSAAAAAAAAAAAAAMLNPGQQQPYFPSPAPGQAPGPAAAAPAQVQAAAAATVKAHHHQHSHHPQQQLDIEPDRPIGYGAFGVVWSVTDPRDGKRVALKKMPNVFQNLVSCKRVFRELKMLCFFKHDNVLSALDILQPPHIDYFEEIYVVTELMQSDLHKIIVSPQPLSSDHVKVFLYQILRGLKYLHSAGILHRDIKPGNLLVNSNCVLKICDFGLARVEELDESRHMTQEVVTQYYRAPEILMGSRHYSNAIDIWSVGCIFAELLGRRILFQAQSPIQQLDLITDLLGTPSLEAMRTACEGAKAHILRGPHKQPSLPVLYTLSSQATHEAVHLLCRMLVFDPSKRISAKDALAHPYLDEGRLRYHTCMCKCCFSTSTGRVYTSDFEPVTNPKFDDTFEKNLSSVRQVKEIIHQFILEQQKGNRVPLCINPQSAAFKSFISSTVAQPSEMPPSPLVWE

CS(=O)(=O)NCC[C@H](NC(=O)c1cncc2c1cnn2-c1ccc(F)cc1)c1ccnc(S(C)(=O)=O)c1 [BI 9307]
inactive: residual activity [1] 97% | residual activity [2] 93% | residual activity [3] 90% | residual activity [4] 100% | residual activity [5] 100% | residual activity [6] 100% | residual activity [7] 100% | residual activity [8] 100% | residual activity [9] 94% | residual activity [10] 91% | residual activity [11] 96% | residual activity [12] 82% | residual activity [13] 100% | residual activity [14] 99% | residual activity [15] 78% | residual activity [16] 100% | residual activity [17] 79% | residual activity [18] 100% | residual activity [19] 100% | residual activity [20] 100% | residual activity [21] 100% | residual activity [22] 100% | residual activity [23] 100% | residual activity [24] 92% | residual activity [25] 100% | residual activity [26] 99% | residual activity [27] 79% | residual activity [28] 100% | residual activity [29] 100% | residual activity [30] 100% | residual activity [31] 100% | residual activity [32] 96% | residual activity [33] 69% | residual activity [34] 100% | residual activity [35] 86% | residual activity [36] 100% | residual activity [37] 100% | residual activity [38] 98% | inhibition [39] -5.9% | inhibition [40] 25.3% | inhibition [41] -0.92% | inhibition [42] 18.9% | inhibition [43] -5.01% | inhibition [44] 10.4%

CS(=O)(=O)c1cc(C2(NC(=O)c3cncc4c3cnn4-c3ccc(F)cc3)CC2)ccn1 [BI 639667]
inactive: residual activity [1] 100% | residual activity [2] 95% | residual activity [3] 100% | residual activity [4] 100% | residual activity [5] 82% | residual activity [6] 81% | residual activity [7] 91% | residual activity [8] 100% | residual activity [9] 100% | residual activity [10] 100% | residual activity [11] 100% | residual activity [12] 100% | residual activity [13] 83% | residual activity [14] 100% | residual activity [15] 81% | residual activity [16] 100% | residual activity [17] 75% | residual activity [18] 100% | residual activity [19] 100% | residual activity [20] 90% | residual activity [21] 100% | residual activity [22] 98% | residual activity [23] 100% | residual activity [24] 100% | residual activity [25] 100% | residual activity [26] 100% | residual activity [27] 100% | residual activity [28] 94% | residual activity [29] 100% | residual activity [30] 100% | residual activity [31] 100% | residual activity [32] 100% | residual activity [33] 100% | residual activity [34] 81% | residual activity [35] 100% | residual activity [36] 100% | residual activity [37] 73% | residual activity [38] 91% | inhibition [39] 22.1% | inhibition [40] 22.5% | inhibition [41] -7.9% | inhibition [42] 29.6% | inhibition [43] -5.91% | inhibition [44] 3.75%
